Measured values as given in publication PMC7555825, “New Insights of the Zn(II)-Induced P2 × 4R Positive Allosteric Modulation: Role of Head Receptor Domain SS2/SS3, E160 and D170” (International Journal of Molecular Sciences, 2020).
One block for each compound: values may come before it.

Columns and labels:
[1] = target: T1, rP2 × 2R (Rattus norvegicus, UniProt P49653); settings: NEM treatment + Zn(II) group; control before treatment (first ATP curve)
T1 sequence (P49653 1-472): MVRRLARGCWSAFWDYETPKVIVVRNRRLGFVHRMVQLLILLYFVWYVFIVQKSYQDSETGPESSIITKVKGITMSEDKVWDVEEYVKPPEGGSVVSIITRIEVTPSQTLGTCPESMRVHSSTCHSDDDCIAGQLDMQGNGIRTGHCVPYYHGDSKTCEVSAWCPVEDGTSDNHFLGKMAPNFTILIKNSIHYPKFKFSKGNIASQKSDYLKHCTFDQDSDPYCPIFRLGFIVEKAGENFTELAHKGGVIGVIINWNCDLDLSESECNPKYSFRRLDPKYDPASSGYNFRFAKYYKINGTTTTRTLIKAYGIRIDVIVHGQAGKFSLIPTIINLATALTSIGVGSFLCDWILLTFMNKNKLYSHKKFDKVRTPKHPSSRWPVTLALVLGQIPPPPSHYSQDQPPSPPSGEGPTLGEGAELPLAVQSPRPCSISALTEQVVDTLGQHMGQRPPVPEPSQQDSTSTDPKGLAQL

[2] = target: T1, rP2 × 2R; test: cell-based
[3] = target: T1, rP2 × 2R; test: Short protocol: Zn(II) potentiation of single 10 µM ATP-evoked currents before/after thiol reagent treatment, rP2 × 2R oocytes; assay type: cell-based; set-up: expressed in transfected cells; host or cells: Xenopus laevis oocytes (intranuclear plasmid injection); settings: for times potentiation of ATP-evoked currents by Zn(II): 30 µM Zn(II)
Protocol: (§1) A simpler and shorter assay to test the Zn(II) potentiation was developed to better assess the loss of Zn(II) modulation elicited by the joint co-treatment of NEM plus Zn(II). […] Ten minutes after alkylator washout, cells were treated with Zn(II) plus NEM or iodoacetamide (IA) for 5 min followed by 20 min of alkylator washout. Next, the P2 × R was tested again to examine the magnitude of the Zn(II) potentiation.
(§2) After 10 min of washout we applied 300 µM NEM, 300 µM IA, 300 µM IAc, or 300 µM DTNB for 5 min in absence or presence of Zn(II) (10 µM for rP2 × 4R and 30 µM for rP2 × 2R).

[4] = target: T1, rP2 × 2R; set-up: expressed in transfected cells; host or cells: Xenopus laevis oocytes (intranuclear plasmid injection); method as in PMID 10737610, PMID 10188989, PMID 10322050, PMID 8622997; settings: P2 × 2R; cited from earlier work
[5] = target: T2, rP2 × 4R (Rattus norvegicus, UniProt P51577); test: Short protocol: Zn(II) potentiation of single 10 µM ATP-evoked currents before/after thiol reagent treatment, rP2 × 4R oocytes; assay type: cell-based; settings: for fold increase of ATP-evoked currents by Zn(II): 10 µM ATP
T2 construct: host or cells: Xenopus laevis oocytes (intranuclear plasmid injection, pcDNA3)
T2 sequence (P51577 1-388): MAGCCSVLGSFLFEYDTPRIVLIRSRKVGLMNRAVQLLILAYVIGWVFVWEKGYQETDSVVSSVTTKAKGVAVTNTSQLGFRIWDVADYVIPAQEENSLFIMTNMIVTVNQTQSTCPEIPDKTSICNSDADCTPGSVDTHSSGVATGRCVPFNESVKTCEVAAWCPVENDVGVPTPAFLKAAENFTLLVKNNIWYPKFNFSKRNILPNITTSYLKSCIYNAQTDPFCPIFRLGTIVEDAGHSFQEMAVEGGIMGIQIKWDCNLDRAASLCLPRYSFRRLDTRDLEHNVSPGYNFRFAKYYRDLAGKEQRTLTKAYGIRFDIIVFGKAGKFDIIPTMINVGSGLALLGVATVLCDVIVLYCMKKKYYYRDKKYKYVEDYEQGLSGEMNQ
Protocol: as §1, §2
After 10 min of washout we applied 300 µM NEM + 10 µM DTT.

Imax [1]: 26.7 ± 3.5 µA
EC50 ([2]; ATP EC50, NEM treatment + Zn(II) group, control before treatment (first ATP curve)): 39.9 ± 8.3 µM
EC50 ([2]; ATP EC50, NEM treatment + vehicle group, control before treatment (first ATP curve)): 67.7 ± 13.3 µM
EC50 ([2]; ATP EC50, after 300 µM NEM + 30 µM Zn(II) treatment, control = ATP curve after treatment): 33 ± 7.4 µM
EC50 ([2]; ATP EC50, after 300 µM NEM + vehicle treatment, control = ATP curve after treatment): 35 ± 9.2 µM
EC50 ([2]; ATP EC50, vehicle treatment, Figure 1D, without Zn(II)): 56.4 ± 7.4 µM
Structure (SMILES): Nc1ncnc2c1ncn2[C@@H]1O[C@H](COP(=O)(O)OP(=O)(O)OP(=O)(O)O)[C@@H](O)[C@H]1O [ATP, adenosine triphosphate]

Structure (SMILES): [Cl-].[Cl-].[Zn+2] [Zn(II), zinc chloride (ZnCl2)]
times potentiation of ATP-evoked currents by Zn(II) ([3]; before IA + Zn(II) treatment, Figure 2F): 8.3 ± 4.0 times
times potentiation of ATP-evoked currents by Zn(II) ([3]; before NEM + Zn(II) treatment, Figure 2E): 11.4 ± 2.0 times
Zn(II) concentration potentiating the ATP-evoked currents ([3]; co-application with ATP, Figure S1 right): 30 to 300 µM
fold leftward displacement of the ATP concentration–response curve by Zn(II) [4]: 5 fold
fold increase of ATP-evoked currents by Zn(II) ([5]; 10 µM Zn(II), after 300 µM NEM plus 10 µM Zn(II) incubation): 1.3 ± 0.2 fold
fold increase of ATP-evoked currents by Zn(II) ([5]; 10 µM Zn(II), after 300 µM NEM treatment (no Zn(II)) and washout): 1.6 ± 0.2 fold
fold increase of ATP-evoked currents by Zn(II) ([5]; 10 µM Zn(II), before NEM plus Zn(II) incubation): 2.4 ± 0.3 fold
fold increase of ATP-evoked currents by Zn(II) ([5]; 10 µM Zn(II), before NEM treatment): 1.8 ± 0.1 fold
fold potentiation of ATP-evoked currents by Zn(II) ([5]; 10 µM Zn(II), before 10 µM DTT + 300 µM NEM treatment): 2.0 ± 0.2 fold
ATP plus Zn(II) current after DTT plus NEM treatment, fold for the first ATP application ([5]; 10 µM Zn(II), no potentiation by Zn(II) observed): 2.4 ± 0.7 fold
fold potentiation of 10 µM ATP-evoked currents by Zn(II) ([5]; 10 µM Zn(II), prior to any treatments): ~2 fold
fold Zn(II)-induced potentiation of ATP-evoked currents ([5]; after 300 µM DTNB plus 10 µM Zn(II) treatment): 2.1 ± 0.4 fold
fold Zn(II)-induced potentiation of ATP-evoked currents ([5]; after 300 µM IAc plus 10 µM Zn(II) treatment): 2.4 ± 0.7 fold
reversibility of the metal effect ([5]; after 10 min washout initial 10 µM ATP-gated current fully recovered): reversible
fold Zn(II)-induced potentiation of ATP-evoked currents ([5]; before DTNB plus Zn(II) treatment): 1.9 ± 0.3 fold
fold Zn(II)-induced potentiation of ATP-evoked currents ([5]; before IAc plus Zn(II) treatment): 2.2 ± 0.2 fold
